Measured values taken from patent US10485235B2, “Aryloxypyrimidinyl ethers as herbicides” (FMC Corporation, priority 2015, dated 2019).

Key:
Format in all cases: in vivo
[1] = test system: ryegrass, Italian (Italian ryegrass, Lolium multiflorum); assay: Test A preemergence, Italian ryegrass; details: Lolium multiflorum, pre-emergence, 240 h, Preemergence, 0 to 100 scale (0 no effect, 100 complete control), read-out: Plant response rating, Ryegrass, Italian; for pest or weed control at 125 g/ha: 125 g ai/ha
Method in brief: (§1)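 Plants grown in pots of loam blended with sand were treated either before emergence, via directed soil spray, or after emergence at the one- to two-leaf stage. Following about 10 days in the greenhouse, each treatment was visually compared with untreated controls and rated from 0 (no effect) to 100 (complete control).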

[2] = test system: sedge, umbrella (small-flower umbrella sedge, Cyperus difformis); assay: Test B flooded paddy test, umbrella sedge; details: Cyperus difformis; 250 g ai/ha, Flood; visual rating after 13 to 15 days; scale 0 to 100, 0 is no effect, 100 is complete control; read-out: Plant response rating, Sedge, Umbrella
Method in brief: (§2)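 2-leaf plants; flood to 3 cm, dose into water, hold depth; greenhouse 13–15 d; visual score 0–100 vs controls; dash = not tested.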

[3] = test system: ragweed (common ragweed, Ambrosia elatior); assay: Test A postemergence, ragweed; details: Ambrosia artemisiifolia, post-emergence, 240 h, postemergence, 0 to 100 scale, 0 is no effect, 100 is complete control, approximately 10 days, read-out: Plant response rating, Ragweed; for pest or weed control at 125 g/ha: 125 g ai/ha
Method in brief: as §1

[4] = test system: pigweed (Amaranthus retroflexus); assay: Test A postemergence, pigweed; details: Amaranthus retroflexus, post-emergence, 240 h, postemergence, 0 to 100 scale, 0 is no effect, 100 is complete control, approximately 10 days, read-out: Plant response rating, Pigweed; for pest or weed control at 125 g/ha: 125 g ai/ha
Method in brief: as §1

[5] = test system: foxtail, giant (giant foxtail, Setaria faberii); assay: Test A preemergence, giant foxtail; details: Setaria faberi, pre-emergence, 240 h, Preemergence, 0 to 100 scale (0 no effect, 100 complete control), read-out: Plant response rating, Foxtail, Giant; for pest or weed control at 125 g/ha: 125 g ai/ha
Method in brief: as §1

[6] = test system: ducksalad (Heteranthera limosa); assay: Test B flooded paddy test, ducksalad; details: Heteranthera limosa; 250 g ai/ha, Flood; visual rating after 13 to 15 days; scale 0 to 100, 0 is no effect, 100 is complete control; read-out: Plant response rating, Ducksalad
Method in brief: as §2

[7] = test system: wheat (Triticum aestivum); assay: Test A postemergence, wheat; details: Triticum aestivum, post-emergence, 240 h, postemergence, 0 to 100 scale, 0 is no effect, 100 is complete control, approximately 10 days, read-out: Plant response rating, Wheat; for plant injury at 125 g/ha: 125 g ai/ha
Method in brief: as §1

[8] = test system: barnyardgrass (Echinochloa crus-galli); assay: Test B flooded paddy test, barnyardgrass; details: Echinochloa crus-galli; 250 g ai/ha, Flood; visual rating after 13 to 15 days; scale 0 to 100, 0 is no effect, 100 is complete control; read-out: Plant response rating, Barnyardgrass
Method in brief: as §2

[9] = test system: ragweed (common ragweed, Ambrosia elatior); assay: Test A preemergence, ragweed; details: Ambrosia artemisiifolia, pre-emergence, 240 h, Preemergence, 0 to 100 scale (0 no effect, 100 complete control), read-out: Plant response rating, Ragweed; for pest or weed control at 125 g/ha: 125 g ai/ha
Method in brief: as §1

[10] = test system: blackgrass (Alopecurus myosuroides); assay: Test A postemergence, blackgrass; details: Alopecurus myosuroides, post-emergence, 240 h, postemergence, 0 to 100 scale, 0 is no effect, 100 is complete control, approximately 10 days, read-out: Plant response rating, Blackgrass; for pest or weed control at 125 g/ha: 125 g ai/ha
Method in brief: as §1

[11] = test system: pigweed (Amaranthus retroflexus); assay: Test A preemergence, pigweed; details: Amaranthus retroflexus, pre-emergence, 240 h, Preemergence, 0 to 100 scale (0 no effect, 100 complete control), read-out: Plant response rating, Pigweed; for pest or weed control at 125 g/ha: 125 g ai/ha
Method in brief: as §1

rice (Oryza sativa) = assay: Test B flooded paddy test, rice; details: Oryza sativa; 250 g ai/ha, Flood; visual rating after 13 to 15 days; scale 0 to 100, 0 is no effect, 100 is complete control; read-out: Plant response rating, Rice
Method in brief: as §2

kochia (Kochia scoparia) = assay: Test A preemergence, kochia; details: Bassia scoparia, pre-emergence, 240 h, Preemergence, 0 to 100 scale (0 no effect, 100 complete control), read-out: Plant response rating, Kochia; for pest or weed control at 125 g/ha: 125 g ai/ha
Method in brief: as §1

[12] = test system: barnyardgrass (Echinochloa crus-galli); assay: Test A preemergence, barnyardgrass; details: Echinochloa crus-galli, pre-emergence, 240 h, Preemergence, 0 to 100 scale (0 no effect, 100 complete control), read-out: Plant response rating, Barnyardgrass; for pest or weed control at 125 g/ha: 125 g ai/ha
Method in brief: as §1

corn (Zea mays) = assay: Test A postemergence, corn; details: Zea mays, post-emergence, 240 h, postemergence, 0 to 100 scale, 0 is no effect, 100 is complete control, approximately 10 days; for Corn plant response rating (crop injury, 0 = no effect, 100 = complete kill) at 125 g/ha: 125 g ai/ha
Method in brief: as §1

FC(F)C(F)(F)COc1c(Br)cccc1Oc1ncc(Cl)cn1 [Compound 18, 2-[3-bromo-2-(2,2,3,3-tetrafluoropropoxy)phenoxy]-5-chloropyrimidine]
pest or weed control at 125 g/ha [1]: 10%
pest or weed control at 500 g/ha ([1]; 500 g ai/ha): 100%
pest or weed control at 250 g/ha [2]: 0%
pest or weed control at 125 g/ha [3]: 0%
pest or weed control at 500 g/ha ([3]; 500 g ai/ha): 20%
pest or weed control at 125 g/ha [4]: 100%
pest or weed control at 500 g/ha ([4]; 500 g ai/ha): 100%
pest or weed control at 125 g/ha [5]: 100%
pest or weed control at 500 g/ha ([5]; 500 g ai/ha): 100%
pest or weed control at 250 g/ha [6]: 30%
plant injury at 125 g/ha [7]: 0%
plant injury at 500 g/ha ([7]; 500 g ai/ha): 20%
pest or weed control at 250 g/ha [8]: 0%
pest or weed control at 125 g/ha [9]: 0%
pest or weed control at 500 g/ha ([9]; 500 g ai/ha): 10%
pest or weed control at 125 g/ha [10]: 20%
pest or weed control at 500 g/ha ([10]; 500 g ai/ha): 80%
pest or weed control at 125 g/ha [11]: 100%
pest or weed control at 500 g/ha ([11]; 500 g ai/ha): 100%
plant injury at 250 g/ha (rice (Oryza sativa)): 0%
pest or weed control at 125 g/ha (kochia (Kochia scoparia)): 30%
pest or weed control at 500 g/ha (kochia (Kochia scoparia); 500 g ai/ha): 100%
pest or weed control at 125 g/ha [12]: 100%
pest or weed control at 500 g/ha ([12]; 500 g ai/ha): 100%
Corn plant response rating (crop injury, 0 = no effect, 100 = complete kill) at 125 g/ha (corn (Zea mays)): 20%
Corn plant response rating (crop injury, 0 = no effect, 100 = complete kill) at 500 g/ha (corn (Zea mays); 500 g ai/ha): 30%

FC(F)(F)COc1c(Cl)cccc1Oc1ncc(Cl)cn1 [Compound 42]
pest or weed control at 31 g/ha ([1]; 31 g ai/ha): 0%
pest or weed control at 125 g/ha [1]: 0%
pest or weed control at 250 g/ha [2]: 60%
pest or weed control at 31 g/ha ([3]; 31 g ai/ha): 0%
pest or weed control at 125 g/ha [3]: 0%
pest or weed control at 31 g/ha ([4]; 31 g ai/ha): 20%
pest or weed control at 125 g/ha [4]: 60%
pest or weed control at 31 g/ha ([5]; 31 g ai/ha): 0%
pest or weed control at 125 g/ha [5]: 10%
pest or weed control at 250 g/ha [6]: 70%
plant injury at 31 g/ha ([7]; 31 g ai/ha): 0%
plant injury at 125 g/ha [7]: 0%
pest or weed control at 250 g/ha [8]: 0%
pest or weed control at 31 g/ha ([9]; 31 g ai/ha): 0%
pest or weed control at 125 g/ha [9]: 0%
pest or weed control at 31 g/ha ([10]; 31 g ai/ha): 0%
pest or weed control at 125 g/ha [10]: 10%
pest or weed control at 31 g/ha ([11]; 31 g ai/ha): 0%
pest or weed control at 125 g/ha [11]: 60%
plant injury at 250 g/ha (rice (Oryza sativa)): 0%
pest or weed control at 31 g/ha (kochia (Kochia scoparia); 31 g ai/ha): 0%
pest or weed control at 125 g/ha (kochia (Kochia scoparia)): 10%
pest or weed control at 31 g/ha ([12]; 31 g ai/ha): 0%
pest or weed control at 125 g/ha [12]: 10%
Corn plant response rating (crop injury, 0 = no effect, 100 = complete kill) at 31 g/ha (corn (Zea mays); 31 g ai/ha): 0%
Corn plant response rating (crop injury, 0 = no effect, 100 = complete kill) at 125 g/ha (corn (Zea mays)): 10%
